# Results: patent US8399206B2, “Methods for diagnosis, prognosis and methods of treatment” (Nodality, Inc., priority 2008, dated 2013)
# Columns and labels:
# Type in all cases: cell-based, human
# [1] = test system: AML leukemic cells; assay: Apoptosis/cytostasis arm: 48-hr kinase inhibitor incubation of AML cells (cleaved PARP, CyclinB1, p-Histone H3); settings: 1 μM; two samples with the greatest SCF and G-CSF signaling response and most robust proliferation
# Description: The TKIs impact was measured on distal functional readouts, including apoptosis (cleaved PARP) and cell cycle (CyclinB1-S/G2 phase; p-Histone H3-M phase). All results were compared with results from bone marrow samples from healthy donors (N=6).
# [2] = test system: AML blasts; assay: SCNP / phospho-flow modulated signaling assay, AML study No. 1 (PBMC at diagnosis, CR vs NR)
# Description: The present illustrative example represents how to analyze cells in one embodiment of the present invention. There are several steps in the process, such as the stimulation step, the staining step and the flow cytometry step. The stimulation step of the phospho-flow procedure can start with vials of frozen cells and end with cells fixed and permeabilized in methanol. Then the cells can be stained with an antibody directed to a particular protein of interest and then analyzed using a flow cytometer.
# Frozen cells are thawed in a 37° C. water bath and gently resuspended in the vial and transferred to the 15 mL conical tube. The 15 mL tube is centrifuged at 930 RPM (200×g) for 8 minutes at room temperature. The supernatant is aspirated and the pellet is gently resuspended in 1 mL media A. The cell suspension is filtered through a 70 um cell strainer into a new 15 mL tube. The cell strainer is rinsed with 1 mL media A and another 12 ml of media A into the 15 mL tube. The cells are mixed into an even suspension. A 20 μL aliquot is immediately removed into a 96-well plate containing 180 μL PBS+4% FBS+CD45 Alexa 700+PI to determine cell count and viability post spin. After the determination, the 15 mL tubes are centrifuged at 930 RPM (200×g) for 8 minutes at room temperature. The supernatant is aspirated and the cell pellet is gently resuspended in 4 mL PBS+4 μL Amine Aqua and incubated for 15 min in a 37° C. incubator. 10 mL RPMI+1% FBS is added to the cell suspension and the tube is inverted to mix the cells. The 15 mL tubes are centrifuged at 930 RPM (200×g) for 8 minutes at room temperature. The cells are resuspended in Media A at the desired cell concentration (1.25×10^6/mL). For samples with low numbers of cells (<18.5×10^6), the cells are resuspended in up to 15 mL media. For samples with high numbers of cells (>18.5×10^6), the volume is raised to 10 mL with media A and the desired volume is transferred to a new 15 mL tube, and the cell concentration is adjusted to 1.25×10^6 cells/ml. 1.6 mL of the above cell suspension (concentration at 1.25×10^6 cells/ml) is transferred into wells of a multi-well plate. From this plate, 80 ul is dispensed into each well of a subsequent plate. The plates are covered with a lid (Nunc) and placed in a 37° C. incubator for 2 hours to rest.
# A concentration for each stimulant that is five folds more (5×) than the final concentration is prepared using Media A as diluent. 5× stimuli are arrayed into wells of a standard 96 well v-bottom plate that correspond to the wells on the plate with cells to be stimulated.
# Adding the stimulant: The cell plate(s) are taken out of the incubator and placed in a 37° C. water bath next to the pipette apparatus. The cell plate is taken from the water bath and gently swirled to resuspend any settled cells. With pipettor, the stimulant is dispensed into the cell plate and vortexed at “7” for 5 seconds. The deep well plate is put back into the water bath.
# Adding Fixative: 200 μl of the fixative solution (final concentration at 1.6%) is dispensed into wells and then mixed on the titer plate shaker on high for 5 seconds. The plate is covered with foil sealer and incubated in a 37° C. water bath for 10 minutes. The plate is spun for 6 minutes at 2000 rpm at room temperature. The cells are aspirated using a 96 well plate aspirator (VP Scientific). The plate is vortexed to resuspend cell pellets in the residual volume. The pellet is ensured to be dispersed before the Methanol step (see cell permeabilization) or clumping will occur.
# Cell Permeabilization: Permeability agent, for example methanol, is added slowly and while the plate is vortexing. To do this, the cell plate is placed on titer plate shaker and made sure it is secure. The plate is set to shake using the highest setting. A pipetter is used to add 0.6 mls of 100% methanol to the plate wells. The plate(s) are put on ice until this step has been completed for all plates.
# [3] = test system: AML BMMC leukemic blasts; assay: SCNP modulated signaling assay, AML study No. 2 (BMMC, CR vs NR, clinical sub-groups)
# Description: Two independent sets of cryopreserved samples were analyzed sequentially. The first set consisted of 35 peripheral blood mononuclear cell (PBMC) samples derived from AML patients. The second set consisted of 134 cryopreserved bone marrow mononuclear cell (BMMC) samples derived from AML patients. These samples were the same samples used in the previous examples. Sample inclusion criteria required collection prior to initiation of induction chemotherapy, AML classification by the French-American-British (FAB) criteria as M0 through M7 (excluding M3) and availability of clinical annotations.
# In the first study, induction chemotherapy consisted of at least one cycle of standard cytarabine-based induction therapy (i.e. daunorubicin 60 mg/m^2×3 days, cytarabine 100-200 mg/m^2 continuous infusion×7 days); responses were measured after one cycle of induction therapy. In the second study, cytarabine (200 mg/m^2 to 3 g/m^2) was used in combination with an anthracycline (daunorubicin or idarubicin) or an additional anti-metabolite (e.g. fludarabine or troxacitabine), and sometimes, an experimental agent (Table 16). […] Standard clinical and laboratory criteria were used for defining complete response (CR) in both studies. […] Classified as “CRp,” these samples were included in the CR group for all primary analysis. The univariate analyses were also repeated with the CRp patients classified into the NR sample group for sensitivity analysis.
# Cyropreserved samples were thawed at […], washed and centrifuged in PBS, 10% FBS and 2 mM EDTA. The cells were re-suspended, filtered to remove debris and washed in RPMI cell culture media, 1% FBS, then stained with Live/Dead Fixable Aqua Viability Dye to distinguish non-viable cells. The cells were then re-suspended in RPMI, 1% FBS, aliquoted to 100,000 cells/condition and rested for 1-2 hours at 37° C. prior to SCNP assays. Each condition included two to five phenotypic markers for cell population gating (eg, CD45, CD33), up to three intracellular stains or up to three additional surface markers or control antibodies for an eight-color flow cytometry assay.
# Functional assays were performed as previously described. Cells were incubated with modulators (Table 18), at 37° C. for 3-15 minutes, fixed with 1.6% paraformaldehyde (final concentration) for 10 minutes at 37° C., pelleted and permeabilized with 100% ice-cold methanol and stored at −80° C.
# Data was acquired using FACS DIVA software on both LSR II and CANTO II Flow Cytometers (BD). For all analyses, dead cells and debris were excluded by forward scatter (FSC), side scatter (SSC), and Amine Aqua Viability Dye measurement. Leukemic cells were identified as cells that lacked the characteristics of mature lymphocytes (CD45^++, CD33^−) and that fit the CD45 and CD33 versus right-angle light-scatter characteristics consistent with myeloid leukemia cells.
# The median fluorescence intensity (MFI) was computed for each node from the fluorescence intensity levels for the cells in the myeloid population. The MFI values were then used to compute a variety of metrics by comparing them to baseline or background values, including the unmodulated condition, cellular autofluorescence and antibody isotype controls. The following metrics were computed: • 1. Basal MFI (“Basal”)=log2(MFIUnmodulated Stained)−log2(MFIGated Unstained (Autofluoresence)), designed to measure the basal levels of a certain protein under unmodulated conditions. • 2.
# [4] = test system: pediatric AML leukemic blasts; assay: SCNP assay on pediatric AML bone marrow samples, POG trial 9421 (Example 11)
# Description: SCNP assays were performed on 77 bone marrow samples from pediatric AML patients enrolled in POG trial 9421 of which 67 were evaluable/had sufficient data for analysis and were enriched for non-responders (NR). 80 combinations of modulators and intra-cellular proteins (signaling nodes) were investigated including nodes involved in the phosphoinositide 3-kinase (PI3K), Janus Kinases (JAK), signal transducers and activators of transcription (STAT) and the DNA damage response and apoptosis pathways. Basal and modulated protein levels in leukemic blasts were measured using several metrics (e.g., fold change, total level of phosphorylation, and a rank based method Uu measuring the proportion of cells that shift from baseline), and nodes were examined in univariate and multivariate analyses for their ability to discriminate between AML responsive (CR, n=46) and non-responsive (NR, n=21) to anthracycline/cytarabine-based induction therapy. Furthermore, nodes were examined for their ability to identify patients likely to be in complete continuous remission (CCR, n=23) or relapse (CR-Rel, n=23) within 4 years.
# [5] = test system: AML BMMC leukemic blasts; assay: Functional apoptosis assay, AML study No. 2 (etoposide or Ara-C and daunorubicin, 24 hours); settings: patients younger than 60 years old
# Description: Multi-parameter flow cytometric analysis was performed on BMMC samples taken at diagnosis from 61 AML patients. The samples were balanced for complete response (CR) and non-responders (NR) after 1 to 3 cycles of induction therapy and de novo versus secondary AML. Nodes in Tables 2 to 10 were examined.
# Functional assays were performed as previously described. […]
# The median fluorescence intensity (MFI) was computed for each node from the fluorescence intensity levels for the cells in the myeloid population. The MFI values were then used to compute a variety of metrics by comparing them to baseline or background values, including the unmodulated condition, cellular autofluorescence and antibody isotype controls. The following metrics were computed: • 1. Basal MFI (“Basal”)=log2(MFIUnmodulated Stained)−log2(MFIGated Unstained (Autofluoresence)), designed to measure the basal levels of a certain protein under unmodulated conditions. • 2. Fold Change MFI (“Fold”)=log2(MFIModulated Stained)−log2(MFIUnmodulated Stained), a measure of the change in the activation state of a protein under modulated conditions. • 3. Total Phospho MFI (“TotalPhospho”)=log2(MFIModulated Stained)−log2(MFIGated Unstained (Autofluorescence)), a measure of the total levels of a protein under modulated conditions. • 4. […]
# [6] = test system: FLT3-WT and FLT3-ITD AML leukemic blasts; assay: SCNP signaling and apoptosis in FLT3-WT versus FLT3-ITD AML samples (Example 9); settings: FLT3-ITD vs FLT3-WT samples, study 1 and study 2
# Description: This example identifies intracellular signaling pathways associated with FLT3 ITD in two independent cohorts of diagnostic AML samples that serve as an improvement over current clinical tools in the identification of clinically meaningful altered FLT 3 and has implications for cohort selection in the development of FLT3 inhibitors. The two cohorts of data were further analyzed to investigate the differences in signaling between FLT-WT and FLT-ITD samples. The first cohort of data (“study 1”) comprised the 34 samples from University Health Network outlined in Table 16 and Table 19. The second cohort of data (“study 2”) comprised an 83 sample subset of MD Anderson Cancer Center data outlined in Table 16 (and Table 19). The 83 sample subset was selected based on known FLT3 mutation status. Both cohorts of data were used to investigate differences in FLT3 signaling between leukemic blasts and control data.
# In order to further characterize wild-type FLT receptor signaling in AML, we compared FLT3L-induced signaling in the myeloblast population of control BMMC samples with FLT3L-induced signaling in the leukemic blast population of FLT3-WT AML samples.
# Univariate analysis, unadjusted for multiple testing, was performed sequentially and independently on the two study cohorts in order to identify signaling nodes that distinguished with FLT3-ITD from FLT3-WT AML patient samples. […] Results from both studies include the AUC, Wilcoxon and t-test p-value for each node, and the number/mean value of the samples in the FLT3-ITD and FLT3-WT AML groups with common stratifying nodes summarized in FIG. 23. Although the majority of the discussion herein is directed to nodes that had similar reponses within the two cohorts of data, some differences were observed between the two cohorts of data. These differences may have been due to the different clinical characteristics of the two cohorts of data, specifically biases in the data from UHN.
# [7] = Study No. 2, all patients, CR samples
# [8] = Study No. 2, all patients, NR samples
# [9] = Study No. 1 sensitivity analysis, CR samples
# [10] = Study No. 1 sensitivity analysis, NR samples incl. CRp
smiles,measurement,setting,value
"C[C@@H]1CCN(C(=O)CC#N)C[C@@H]1N(C)c1ncnc2[nH]ccc12 [CP-690,550]",sensitivity to kinase inhibitor as measured by cytostasis readouts,[1],most sensitive
"OO [H2O2, hydrogen peroxide, reference compound]",phosphorylated PLCγ2 and SLP-76 upon H2O2 treatment,[2]; CR patients versus NR patients,attained higher levels of phosphorylated PLCγ2 and SLP-76 upon H2O2 treatment
same,p-Akt levels upon H2O2 treatment,[2]; NR vs CR patient blasts,higher levels of p-Akt in NR patients versus CR patients
same,p-AKT and p-PLCγ2 following H2O2 treatment,"[3]; NR samples, older patient cohort (>=60 years)",increases in p-AKT and p-PLCγ2
same,"Mean Value of CRs, p-Akt Fold",[3]; [7],0.68
same,"Mean Value of NRs, p-Akt Fold",[3]; [8],0.91
same,"H2O2 and FLT3L responses, NR vs CR",[3]; patients younger than 60 years old (so in the source),NRs have higher H2O2 and FLT3L responses than CRs
same,p-Akt and p-PLC gamma levels with hydrogen peroxide as modulator,[4]; NR samples,lower p-Akt and p-PLC gamma levels in NR samples
COc1cc([C@@H]2c3cc4c(cc3[C@@H](O[C@@H]3O[C@@H]5CO[C@@H](C)O[C@H]5[C@H](O)[C@H]3O)[C@H]3COC(=O)[C@H]23)OCO4)cc(OC)c1O [Etoposide],"induced apoptosis, CR vs NR",[5],CRs induce apoptosis to Etoposide or Ara-C/Daunorubicin more than NRs
same,in vitro apoptosis (etoposide→c-PARP|Total),[6],more sensitive to in vitro apoptosis than FLT3-WT samples
same,"apoptotic response (c-PARP, p-Chk2), CR vs NR","[4]; CR n=46, NR n=21",higher levels of apoptosis in CR samples than in NR samples
"C/C=C(/C)C(=O)O[C@H]1C(C)=C2[C@H]([C@@H]1OC(=O)CCCCCCC)[C@@](C)(OC(C)=O)C[C@H](OC(=O)CCC)[C@@]1(O)[C@H]2OC(=O)[C@@]1(C)O [Thapsigargin, reference compound]","Mean Value of CRs, p-CREB Total Phospho",[2]; [9],1.79
same,"Mean Value of CRs, p-S6 Fold",[2]; [9],0.03
same,"Mean Value of CRs, p-S6 Total Phospho",[2]; [9],0.31
same,"Mean Value of NRs, p-CREB Total Phospho",[2]; [10],2.77
same,"Mean Value of NRs, p-S6 Fold",[2]; [10],0.31
same,"Mean Value of NRs, p-S6 Total Phospho",[2]; [10],0.67
same,"Mean Value of CRs, p-Erk Fold",[3]; [7],1.22
same,"Mean Value of NRs, p-Erk Fold",[3]; [8],0.36
same,"induction of p-Erk, p-CREB and p-S6",[4]; relapse vs complete continuous remission (CCR),less in CR-Rd than in CCR samples
